Columns and labels:
TrkA (h) = target: T1, TrkA (h) (Homo sapiens, UniProt P04629); experiment: Enzymatic activity test, TrkA (h); type: biochemical; conditions: 10 μM [γ-33P]-ATP, 40 minutes, room temperature
T1 construct: purchased
Procedure: (§1) Assay 4: Enzymatic Activity Test of the Compound of the Present Invention
(§2) Test substances: the compounds of the present invention, wherein the structures and preparations thereof were as described above.
(§3) Preparation of the Compound Stock Solution
(§4) The compound was dissolved in 100% DMSO to prepare a stock solution with a maximum concentration of 500 μM.
(§5) Preparation of the Compound Working Solution
(§6) The compound stock solution was diluted to final concentrations of 500, 150, 50, 15. 5, 1.5, 0.5, 0.15 and 0.05 μM to become the compound working solutions (50×).
(§7) Preparation of Different Enzyme Reaction Solutions
The TrkA (h) enzyme was dissolved in 8 mM MOPS (pH 7.0), 0.2 mM EDTA, and 250 μM KKKSPGEYVNIEFG to prepare an enzyme solution having a final concentration of 1.7 nM. The enzymatic reaction was activated by using 10 mM magnesium acetate and 10 μM [γ-^33P]-ATP to form an Mg/ATP mixed solution.
(§8) In a 384-well plate, the compound working solution was added to final concentrations of 10000, 3000, 1000, 300, 100, 30, 10, 3, and 1 nM. Then different enzyme reaction solutions prepared according to the above conditions were added. The incubation was carried out for 40 minutes at room temperature. The test was terminated by the addition of a 0.5% phosphoric acid solution. 10 μL of the reaction solution was taken and dropped to the P30 filter paper. The filter paper was washed 4 times with 0.425% phosphoric acid solution and once with methanol, and then placed on a scintillation counter. The […] IC50 values were calculated using GraphPad 5.0 software.

TrkC (h) = target: T2, TrkC (h) (Homo sapiens, UniProt Q16288); experiment: Enzymatic activity test, TrkC (h); type: biochemical; conditions: 10 μM [γ-33P]-ATP, 40 minutes, room temperature
T2 construct: purchased
Procedure: as §1, §2, §3, §4, §5, §6, §7
The TrkC (h) enzyme was dissolved in 8 mM MOPS (pH 7.0), 0.2 mM EDTA, and 500 μM GEEPLYWSFPAKKK to prepare an enzyme solution having a final concentration of 38 nM. The enzymatic reaction was activated by using 10 mM magnesium acetate and 10 μM [γ-^33P]-ATP to form an Mg/ATP mixed solution.
as §8

[1] = target: T3, pCSF1R in CSF1R plasmid-transfected HEK293T cells (Homo sapiens, UniProt P07333); experiment: Inhibitory activity on the cell pCSF1R (Western Blot); type: cell-based; conditions: compound 30, 100, 300, 1000 nM, 120 minutes
T3 construct: expressed in transfected cells; host or cells: HEK293T
Procedure: Assay 7: Test for Inhibitory Activities of the Compounds of the Present Invention on the Cell pCSF1R
HEK293T is a human renal epithelial cell.
(§9) Test substances: the compounds of the present invention, wherein the structures thereof were as described above.
Test equipment: protein electrophoresis apparatus (manufactured by Bio Rad), transfer unit (manufactured by Bio Rad), exposure unit (manufactured by Tanon), CO2 cell incubator (manufactured by Thermo).
The BEK293T cells were inoculated in a 6-well plate (containing 10% FBS DMEM medium, 4×10^5 cells per well), and adherent cells were cultivated at 37° C. in a 5% CO2 condition for 6 hours. Each well was transfected with 2 μg CSF1R plasmid, and the cells were cultivated at 37° C. in a 5% CO2 condition overnight. At 24 hours after transfection, different concentrations of compounds were added to the administration group. The final compound concentrations were 30, 100, 300, and 1000 nM, and the final DMSO content was 1‰. The negative control wells contained the medium containing 1‰ DMSO. […] The inhibitory activity of the compound on the cell pCSF1R was examined.

Ba/F3 ETV6-NTRK2 cells = target: T4, Ba/F3 ETV6-NTRK2 cells (Homo sapiens, UniProt Q16620); experiment: Cell viability test (CTG), Ba/F3 ETV6-NTRK2; type: cell-based; conditions: NTRK2 wild type cell, 72 hours, read-out: IC50 Ba/F3 ETV6-NTRK2
T4 construct: fused on or other part: P41212 (Transcription factor ETV6)
Procedure: (§10) Assay 8: Cell viability test of the compounds of the present invention
Ba/F3 ETV6-NTRK2 is an NTRK 2 wild type cell;
as §9
(§11) Test instrument: SpectraMax multi-label microplate reader.
(§12) Each cell was inoculated in a 96-well plate and adherent cells were cultivated overnight. Different concentrations of the compounds (9 dose groups, 3.16 times DMSO serial dilution) were added to give the final concentration of 0.1-1000 nM, and the final DMSO content was 1‰. The negative control wells contained the medium containing 1‰ DMSO. The cells were incubated at 37° C. in a condition of 5% CO2 and 95% humidity for 72 hours for use. An equal volume of CTG reagent was added to each well, and the cells were lysed by shaking for 5 minutes on an orbital shaker, and incubated for 20 minutes at room temperature to stabilize the cold light signal. The cold light signal was read with a microplate reader. Data were analyzed using GraphPad Prism 5.0 software, and data were fitted using nonlinear S-curve regression to derive a dose-response curve and thereby calculate IC50 values.

[2] = target: T5, Ba/F3 LMNA-NTRK1-V573M cells (Homo sapiens, UniProt P04629, V573M, cells depend on it); experiment: Cell viability test (CTG), Ba/F3 LMNA-NTRK1-V573M; type: cell-based; conditions: NTRK1 gene mutant cell, 72 hours, read-out: IC50 Ba/F3 LMNA-NTRK1-V573M
T5 construct: Ba/F3 LMNA-NTRK1 G667C and Ba/F3 LMNA-NTRK1-V573M are NTRK1 gene mutant cells; fused on or other part: P02545 (Prelamin-A/C)
Source text: as §10
Ba/F3 LMNA-NTRK1 G667C and Ba/F3 LMNA-NTRK1-V573M are NTRK1 gene mutant cells.
as §9, §11, §12

T5 sequence (P04629 whole entry V573M, the tested form may be a part): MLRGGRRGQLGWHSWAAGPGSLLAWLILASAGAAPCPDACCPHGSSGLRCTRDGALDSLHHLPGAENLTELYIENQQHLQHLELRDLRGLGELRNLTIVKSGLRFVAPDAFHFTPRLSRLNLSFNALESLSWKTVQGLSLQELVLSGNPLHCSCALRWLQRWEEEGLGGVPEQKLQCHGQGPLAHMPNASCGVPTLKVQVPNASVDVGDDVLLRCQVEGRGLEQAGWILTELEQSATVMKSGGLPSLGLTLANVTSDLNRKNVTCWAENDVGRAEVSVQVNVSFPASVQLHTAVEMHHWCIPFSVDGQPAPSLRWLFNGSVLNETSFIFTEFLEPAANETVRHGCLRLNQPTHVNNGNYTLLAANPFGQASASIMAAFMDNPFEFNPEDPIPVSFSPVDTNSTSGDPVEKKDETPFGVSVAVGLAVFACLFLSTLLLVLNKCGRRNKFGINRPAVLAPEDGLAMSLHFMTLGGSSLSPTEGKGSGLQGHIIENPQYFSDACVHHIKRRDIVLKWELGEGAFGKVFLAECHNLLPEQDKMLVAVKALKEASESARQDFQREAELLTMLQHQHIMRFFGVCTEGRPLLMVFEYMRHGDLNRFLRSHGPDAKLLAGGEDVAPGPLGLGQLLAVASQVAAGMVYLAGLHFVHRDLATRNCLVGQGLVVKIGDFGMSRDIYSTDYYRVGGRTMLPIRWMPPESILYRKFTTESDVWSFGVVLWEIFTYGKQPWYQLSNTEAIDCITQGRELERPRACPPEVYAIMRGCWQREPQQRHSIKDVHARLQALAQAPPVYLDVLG
T2 sequence (Q16288 32-839): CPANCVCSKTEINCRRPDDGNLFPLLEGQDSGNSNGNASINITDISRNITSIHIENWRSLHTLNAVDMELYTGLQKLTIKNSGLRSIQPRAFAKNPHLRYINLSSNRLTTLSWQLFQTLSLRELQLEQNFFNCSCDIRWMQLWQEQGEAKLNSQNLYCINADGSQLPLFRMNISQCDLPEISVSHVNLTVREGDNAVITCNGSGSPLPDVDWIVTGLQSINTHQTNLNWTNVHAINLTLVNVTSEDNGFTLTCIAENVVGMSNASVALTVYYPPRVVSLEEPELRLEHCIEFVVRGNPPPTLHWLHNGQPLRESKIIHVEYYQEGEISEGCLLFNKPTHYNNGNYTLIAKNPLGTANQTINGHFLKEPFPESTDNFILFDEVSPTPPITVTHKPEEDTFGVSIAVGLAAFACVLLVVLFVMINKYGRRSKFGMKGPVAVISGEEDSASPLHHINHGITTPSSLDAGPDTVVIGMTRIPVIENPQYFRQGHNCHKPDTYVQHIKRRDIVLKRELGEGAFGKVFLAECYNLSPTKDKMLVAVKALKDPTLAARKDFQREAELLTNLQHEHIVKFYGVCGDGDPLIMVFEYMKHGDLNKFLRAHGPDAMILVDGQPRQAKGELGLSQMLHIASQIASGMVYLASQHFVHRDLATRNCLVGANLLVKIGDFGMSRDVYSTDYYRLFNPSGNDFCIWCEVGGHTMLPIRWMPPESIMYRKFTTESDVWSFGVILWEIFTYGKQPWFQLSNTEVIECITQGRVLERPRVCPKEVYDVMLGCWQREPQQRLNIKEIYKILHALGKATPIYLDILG
T1 sequence (P04629 33-796): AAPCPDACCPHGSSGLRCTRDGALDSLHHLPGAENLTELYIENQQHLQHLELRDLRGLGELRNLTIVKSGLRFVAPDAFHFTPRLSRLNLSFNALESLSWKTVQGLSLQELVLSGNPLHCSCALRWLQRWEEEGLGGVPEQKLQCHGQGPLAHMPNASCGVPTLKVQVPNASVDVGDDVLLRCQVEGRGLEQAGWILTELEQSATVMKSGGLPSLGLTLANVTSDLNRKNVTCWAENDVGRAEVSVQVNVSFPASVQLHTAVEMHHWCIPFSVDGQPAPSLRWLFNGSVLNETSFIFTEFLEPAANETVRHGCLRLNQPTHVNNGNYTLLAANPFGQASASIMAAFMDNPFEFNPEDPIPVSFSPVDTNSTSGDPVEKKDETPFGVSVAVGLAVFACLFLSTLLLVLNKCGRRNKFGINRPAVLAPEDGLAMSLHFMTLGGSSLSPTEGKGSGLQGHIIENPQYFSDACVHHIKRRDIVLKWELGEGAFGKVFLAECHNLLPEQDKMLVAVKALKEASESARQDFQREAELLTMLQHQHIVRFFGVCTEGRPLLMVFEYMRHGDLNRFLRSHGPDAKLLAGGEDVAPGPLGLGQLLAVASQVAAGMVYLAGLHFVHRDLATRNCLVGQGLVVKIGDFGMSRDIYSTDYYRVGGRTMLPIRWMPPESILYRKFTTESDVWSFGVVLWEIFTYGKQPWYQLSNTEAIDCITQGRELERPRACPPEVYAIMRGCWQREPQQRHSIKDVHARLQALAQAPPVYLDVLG
T4 sequence (Q16620 whole entry, change not shown, the tested form may be a part): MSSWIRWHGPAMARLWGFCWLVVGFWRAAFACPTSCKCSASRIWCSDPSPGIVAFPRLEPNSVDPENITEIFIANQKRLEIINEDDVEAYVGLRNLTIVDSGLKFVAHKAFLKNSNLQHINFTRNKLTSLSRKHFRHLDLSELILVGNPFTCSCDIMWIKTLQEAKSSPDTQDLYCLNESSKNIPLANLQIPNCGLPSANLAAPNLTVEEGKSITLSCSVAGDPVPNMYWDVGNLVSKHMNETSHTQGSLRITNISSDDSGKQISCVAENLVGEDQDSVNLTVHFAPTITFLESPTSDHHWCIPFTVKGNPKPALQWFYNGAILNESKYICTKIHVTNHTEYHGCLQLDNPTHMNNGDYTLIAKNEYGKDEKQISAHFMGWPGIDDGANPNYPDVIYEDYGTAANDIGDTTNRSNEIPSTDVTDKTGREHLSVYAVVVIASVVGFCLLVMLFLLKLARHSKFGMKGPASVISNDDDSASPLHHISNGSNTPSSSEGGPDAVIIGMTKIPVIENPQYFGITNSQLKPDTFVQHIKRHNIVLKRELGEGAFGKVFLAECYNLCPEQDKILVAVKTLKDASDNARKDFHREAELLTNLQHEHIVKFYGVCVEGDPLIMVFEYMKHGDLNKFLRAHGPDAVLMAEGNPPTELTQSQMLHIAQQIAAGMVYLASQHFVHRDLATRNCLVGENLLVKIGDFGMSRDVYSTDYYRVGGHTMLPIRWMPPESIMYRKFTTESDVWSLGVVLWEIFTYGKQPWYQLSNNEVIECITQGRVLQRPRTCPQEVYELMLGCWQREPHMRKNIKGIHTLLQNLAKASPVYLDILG
T3 sequence (P07333 20-972): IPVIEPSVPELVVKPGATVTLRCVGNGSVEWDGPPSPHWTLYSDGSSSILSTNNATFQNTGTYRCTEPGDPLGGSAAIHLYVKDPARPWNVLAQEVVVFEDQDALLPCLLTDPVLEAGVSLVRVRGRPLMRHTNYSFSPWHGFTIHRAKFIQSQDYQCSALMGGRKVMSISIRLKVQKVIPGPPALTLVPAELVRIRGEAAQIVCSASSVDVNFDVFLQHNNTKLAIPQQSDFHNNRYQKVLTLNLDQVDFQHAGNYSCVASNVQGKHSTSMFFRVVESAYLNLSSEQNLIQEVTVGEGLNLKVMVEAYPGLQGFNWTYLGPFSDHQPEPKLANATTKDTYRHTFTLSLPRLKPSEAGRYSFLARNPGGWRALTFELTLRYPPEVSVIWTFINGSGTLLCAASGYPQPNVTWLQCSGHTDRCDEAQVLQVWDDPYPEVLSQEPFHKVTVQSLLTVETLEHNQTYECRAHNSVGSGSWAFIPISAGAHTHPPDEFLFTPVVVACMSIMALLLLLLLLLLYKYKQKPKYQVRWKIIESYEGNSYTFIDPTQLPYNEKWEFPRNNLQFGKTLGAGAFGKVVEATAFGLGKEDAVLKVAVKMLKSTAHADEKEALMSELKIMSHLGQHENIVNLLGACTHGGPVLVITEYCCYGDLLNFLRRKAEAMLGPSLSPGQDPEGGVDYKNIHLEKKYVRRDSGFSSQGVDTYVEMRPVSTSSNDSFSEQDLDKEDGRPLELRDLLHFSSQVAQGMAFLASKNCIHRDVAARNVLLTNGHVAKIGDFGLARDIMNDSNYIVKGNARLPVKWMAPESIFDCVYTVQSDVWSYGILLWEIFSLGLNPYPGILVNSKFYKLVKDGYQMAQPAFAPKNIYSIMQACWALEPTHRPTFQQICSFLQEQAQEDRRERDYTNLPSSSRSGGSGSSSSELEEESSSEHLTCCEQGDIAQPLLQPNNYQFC

IC50 (TrkA (h))	IC50 (TrkC (h))	IC50 [1]	SMILES	GI50 (Ba/F3 ETV6-NTRK2 cells)	GI50 [2]
6 nM	6 nM	100 to 300 nM	COc1cc2nccc(Oc3ccc(NC(=O)c4nn(C(C)C)cc(-c5ccc(F)cc5)c4=O)nc3)c2cc1OC [Compound 15, N-(5-((6,7-dimethoxyquinolin-4-yl)oxy)pyridin-2-yl)-5-(4-fluorophenyl)-1-isopropyl-4-oxo-1,4-dihydropyridazine-3-carboxamide]	16.4 nM	0.51 nM
3 nM	3 nM	30 to 100 nM	COc1cc2nccc(Oc3ccc(NC(=O)c4nn(C5CC5)cc(-c5ccc(F)cc5)c4=O)nc3)c2cc1OC [Compound 31]	–	1.4 nM
13 nM	5 nM	–	COc1cc2nccc(Oc3cnc(NC(=O)c4nn(C5CC5)cc(-c5ccc(F)cc5)c4=O)nc3)c2cc1OC [Compound 33]	–	6 nM
5 nM	6 nM	–	COc1cc2nccc(Oc3ncc(NC(=O)c4nn(C(C)C)cc(-c5ccc(F)cc5)c4=O)cn3)c2cc1OC [Compound 34, N-(2-((6,7-dimethoxyquinolin-4-yl)oxy)pyrimidine-5-yl)-5-para-fluorophenyl-1-isopropyl-4-oxo-1,4-dihydropyridazine-3-carboxamide]	109 nM	2.7 nM
2 nM	3 nM	–	COc1cc2nccc(Oc3ccc(NC(=O)c4nn(C5CC5)cc(-c5ccc(F)cc5)c4=O)cn3)c2cc1OC [Compound 36]	–	–
7 nM	4 nM	–	COc1cc2nccc(Oc3ncc(NC(=O)c4nn(C5CC5)cc(-c5ccc(F)cc5)c4=O)cn3)c2cc1OC [Compound 37, 1-cyclopropyl-N-(2-((6,7-dimethoxyquinolin-4-yl)oxy)pyrimidine-5-yl)-5-para-fluorophenyl-4-oxo-1,4-dihydropyridazine-3-carboxamide]	–	–
11 nM	8 nM	–	COc1cc2nccc(Oc3ccc(NC(=O)c4cn(C(C)C)nc(-c5ccc(F)cc5)c4=O)cn3)c2cc1OC [Compound 38, N-(6-((6,7-dimethoxyquinolin-4-yl)oxy)pyridin-3-yl)-6-para-fluorophenyl-2-isopropyl-5-oxo-2,5-dihydropyridazine-4-carboxamide]	–	7.5 nM
18 nM	10 nM	–	COc1cc2nccc(Oc3cnc(NC(=O)c4cn(C(C)C)nc(-c5ccc(F)cc5)c4=O)nc3)c2cc1OC [Compound 39, N-(5-((6,7-dimethoxyquinolin-4-yl)oxy)pyrimidine-2-yl)-6-(4-fluorophenyl)-2-isopropyl-5-oxo-2,5-dihydropyridazine-4-carboxamide]	–	5 nM
7 nM	14 nM	–	COc1cc2nccc(Oc3ncc(NC(=O)c4cn(C(C)C)nc(-c5ccc(F)cc5)c4=O)cn3)c2cc1OC [Compound 40, N-(2-((6,7-dimethoxyquinolin-4-yl)oxy)pyrimidine-5-yl)-6-(4-fluorophenyl)-2-isopropyl-5-oxo-2,5-dihydropyridazine-4-carboxamide]	–	9.1 nM
5 nM	–	–	COc1cc2nccc(Oc3ccc(NC(=O)c4cn(C(C)C)nc(-c5ccc(F)cc5)c4=O)nc3)c2cc1OC [Compound 41, N-(5-((6,7-dimethoxyquinolin-4-yl)oxy)pyridin-2-yl)-6-(4-fluorophenyl)-2-isopropyl-5-oxo-2,5-dihydropyridazine-4-carboxamide]	–	–

From patent publication US20220073496A1, “NOVEL QUINOLINE DERIVATIVE INHIBITOR” (Nanjing Transthera Biosciences Co., Ltd., priority 2018, published 2022)
